In US20240391936A1, “TETRAHYDROTHIENO PYRIDINE DERIVATIVES AS DDRS INHIBITORS” (CHIESI FARMACEUTICI S.P.A., priority 2021, published 2024):

What was measured:
[1] = target: T1, DDR2 (Homo sapiens, UniProt Q16832); test: DDR2 binding assay (LanthaScreen Europium Kinase Binding assay); parameters: purchased Life Technologies; details: binding assay, 5 nM DDR2, 10 nM Kinase Tracer 178; Ki from IC50 by Cheng-Prusoff; read-out: Ki DDR2
T1 sequence (Q16832 22-855): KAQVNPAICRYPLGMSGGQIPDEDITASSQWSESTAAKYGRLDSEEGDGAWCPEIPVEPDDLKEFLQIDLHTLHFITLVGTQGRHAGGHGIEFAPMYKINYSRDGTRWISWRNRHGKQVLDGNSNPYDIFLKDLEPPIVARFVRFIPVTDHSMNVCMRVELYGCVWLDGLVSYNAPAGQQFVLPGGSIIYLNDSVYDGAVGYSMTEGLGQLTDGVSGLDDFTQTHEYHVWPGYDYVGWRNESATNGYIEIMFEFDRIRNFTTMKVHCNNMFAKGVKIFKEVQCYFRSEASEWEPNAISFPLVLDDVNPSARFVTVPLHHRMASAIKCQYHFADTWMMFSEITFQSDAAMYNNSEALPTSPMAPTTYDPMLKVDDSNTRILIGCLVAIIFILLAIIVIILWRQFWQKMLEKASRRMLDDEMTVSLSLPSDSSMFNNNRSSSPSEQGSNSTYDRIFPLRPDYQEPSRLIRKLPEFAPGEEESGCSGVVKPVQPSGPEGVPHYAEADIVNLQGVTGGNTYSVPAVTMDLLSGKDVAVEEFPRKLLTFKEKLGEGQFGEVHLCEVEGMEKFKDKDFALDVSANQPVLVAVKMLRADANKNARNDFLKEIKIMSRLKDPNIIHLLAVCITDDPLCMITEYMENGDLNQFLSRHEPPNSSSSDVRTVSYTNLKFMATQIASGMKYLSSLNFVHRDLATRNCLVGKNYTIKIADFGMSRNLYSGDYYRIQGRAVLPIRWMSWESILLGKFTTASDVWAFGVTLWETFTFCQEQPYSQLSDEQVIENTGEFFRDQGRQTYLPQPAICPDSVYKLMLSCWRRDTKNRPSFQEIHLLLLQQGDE
How it was run: (§1)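 Compounds incubated 1 h at room temperature with 5 nM kinase, Kinase Tracer 178 (20 nM for DDR1, 10 nM for DDR2) and 2 nM Eu-anti-GST antibody in pH 7.5 HEPES/MgCl2/EGTA/BRIJ35 buffer. TR-FRET 665/615 nm ratio read after 340 nm excitation; IC50 from 4-parameter fit, converted to Ki by Cheng-Prusoff.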

[2] = target: T2, DDR1 (Homo sapiens, UniProt Q08345); test: DDR1 cell based assay (PathHunter U2OS DDR1 assay); parameters: host or cells: U2OS-DDR1 (PathHunter); details: U2OS-DDR1 cells, bovine Type II Collagen 20 μg/ml
T2 sequence (Q08345 19-913): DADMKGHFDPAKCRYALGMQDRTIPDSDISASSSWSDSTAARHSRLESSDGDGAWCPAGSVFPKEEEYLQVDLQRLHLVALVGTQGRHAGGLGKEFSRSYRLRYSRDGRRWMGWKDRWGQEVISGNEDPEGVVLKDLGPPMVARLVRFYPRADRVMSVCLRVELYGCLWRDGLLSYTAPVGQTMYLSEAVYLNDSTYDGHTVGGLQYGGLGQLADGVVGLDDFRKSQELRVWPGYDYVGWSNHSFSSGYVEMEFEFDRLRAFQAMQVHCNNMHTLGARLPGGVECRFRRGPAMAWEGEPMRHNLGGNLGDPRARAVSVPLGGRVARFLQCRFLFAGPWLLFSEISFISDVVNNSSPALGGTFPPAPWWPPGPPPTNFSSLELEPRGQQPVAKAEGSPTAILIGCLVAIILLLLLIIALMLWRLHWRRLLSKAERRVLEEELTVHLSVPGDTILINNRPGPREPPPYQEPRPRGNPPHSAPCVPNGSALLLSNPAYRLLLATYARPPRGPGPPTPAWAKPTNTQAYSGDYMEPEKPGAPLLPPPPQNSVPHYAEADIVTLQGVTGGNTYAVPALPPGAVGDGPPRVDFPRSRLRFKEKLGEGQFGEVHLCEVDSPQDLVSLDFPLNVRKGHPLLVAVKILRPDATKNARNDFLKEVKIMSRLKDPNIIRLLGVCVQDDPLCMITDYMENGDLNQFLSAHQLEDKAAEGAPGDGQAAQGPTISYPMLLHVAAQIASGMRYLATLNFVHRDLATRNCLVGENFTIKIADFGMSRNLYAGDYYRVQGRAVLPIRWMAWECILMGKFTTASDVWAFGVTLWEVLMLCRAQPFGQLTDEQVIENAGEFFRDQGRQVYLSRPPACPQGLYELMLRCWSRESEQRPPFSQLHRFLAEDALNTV
How it was run: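 U2OS-DDR1 PathHunter cells preincubated 30 min with compound, then stimulated overnight at 37 °C with 20 μg/ml bovine type II collagen. Luminescent complementation signal read after 1 h detection at room temperature; normalized to vehicle (0%) and collagen-only (100%) controls, IC50 from variable-slope sigmoidal fit.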

[3] = target: T2, DDR1; test: DDR1 binding assay (LanthaScreen Europium Kinase Binding assay); parameters: purchased Carna Biosciences; details: binding assay, 5 nM DDR1, 20 nM Kinase Tracer 178; Ki from IC50 by Cheng-Prusoff; read-out: Ki DDR1
How it was run: as §1

[4] = target: T1, DDR2; test: DDR2 cell based assay (phospho-ELISA in HEK293T-DDR2 recombinant cells); parameters: expressed in transfected cells; host or cells: HEK293T-DDR2 recombinant cells; details: bovine Type II Collagen 50 μg/ml
Protocol: The inhibition of DDR2 phosphorylation by compounds was evaluated in HEK293T-DDR2 recombinant cells by phospho-ELISA assay. Briefly, HEK293T-DDR2 cells were seeded in poly-D-lysine-coated 24-well plates at a density of 250.000 cells/well and incubated for 1.5 hours at 37° C. and 5% CO2 in DMEM+10% FBS. After that, the medium was changed to serum-free DMEM and cells were incubated for 3 hours. Then. test compounds were added at different concentrations 30 minutes before stimulation with bovine Type II Collagen at 50 μg/ml for further 3 hours. For DDR2 phospho-ELISA assay (DuoSet IC Human Phospho-DDR2; R&D Systems), protein extracts were obtained by adding 60 μl/well of lysis buffer prepared according to the manufacturer's instructions. Protein concentration in the samples was determined by BCA assay and the levels of phospho-DDR2 were determined following R&D Systems indications. Raw data were normalized to maximal inhibition control (0% for normalization) and positive control (100% for normalization; cells treated with […] collagen II) and IC50 parameters were calculated in GraphPad Prism 8.0 software, using sigmoidal dose-response curve fitting with variable slope.

Row | Structure (SMILES) | Ki [1] [nM] | IC50 [2] [nM] | Ki [3] [nM] | IC50 [4] [nM]
1 | CC1(C)c2scc(C(=O)Nc3cccc(C(F)(F)F)c3)c2CCN1C(=O)c1cnc2ccccn12 [Example 102, 6-(imidazo[1,2-a]pyridine-3-carbonyl)-7,7-dimethyl-N-(3-(trifluoromethyl)phenyl)-4,5,6,7-tetrahydrothieno[2,3-c]pyridine-3-carboxamide] | < 25 | < 25 | < 25 | 25 to 50
2 | CN1CCN(c2ccc3ncc(C(=O)N4CCc5c(C(=O)Nc6cncc(C(F)(F)F)c6)csc5C4)n3c2)CC1 [Example 165, 6-(6-(4-methylpiperazin-1-yl)imidazo[1,2-a]pyridine-3-carbonyl)-N-(5-(trifluoromethyl)pyridin-3-yl)-4,5,6,7-tetrahydrothieno[2,3-c]pyridine-3-carboxamide] | < 25 | < 25 | < 25 | 25 to 50
3 | O=C(Nc1cc(F)cc(C(F)(F)F)c1)c1csc2c1CCN(Cc1cnc3[nH]ncc3c1)C2 [Example 67, 6-((1H-pyrazolo[3,4-b]pyridin-5-yl)methyl)-N-(3-fluoro-5-(trifluoromethyl)phenyl)-4,5,6,7-tetrahydrothieno[2,3-c]pyridine-3-carboxamide] | < 25 | < 25 | < 25 | 25 to 50
4 | COc1ccc(NC(=O)c2csc3c2CCN(Cc2cnc4[nH]ccc4c2)C3)cc1C(F)(F)F [Example 71, 6-((1H-pyrrolo[2,3-b]pyridin-5-yl)methyl)-N-(4-methoxy-3-(trifluoromethyl)phenyl)-4,5,6,7-tetrahydrothieno[2,3-c]pyridine-3-carboxamide] | < 25 | < 25 | < 25 | < 25
5 | O=C(Nc1cccc(C(F)(F)F)c1)c1csc2c1CCN(Cc1ccnc3[nH]ccc13)C2 [Example 86, 6-((1H-pyrrolo[2,3-b]pyridin-4-yl)methyl)-N-(3-(trifluoromethyl)phenyl)-4,5,6,7-tetrahydrothieno[2,3-c]pyridine-3-carboxamide] | < 25 | < 25 | < 25 | < 25
6 | O=C(Nc1ccc(OC2CCOC2)c(C(F)(F)F)c1)c1csc2c1CCN(C(=O)c1cnc3ccccn13)C2 (stereo not shown) [Example 12, 6-(imidazo[1,2-a]pyridine-3-carbonyl)-N-(4-((tetrahydrofuran-3-yl)oxy)-3-(trifluoromethyl)phenyl)-4,5,6,7-tetrahydrothieno[2,3-c]pyridine-3-carboxamide] | < 25 | < 25 | < 25 | < 25
7 | O=C(Nc1cc(F)cc(C(F)(F)F)c1)c1csc2c1CCN(Cc1cnc3[nH]ccc3c1)C2 [Example 73, 6-((1H-pyrrolo[2,3-b]pyridin-5-yl)methyl)-N-(3-fluoro-5-(trifluoromethyl)phenyl)-4,5,6,7-tetrahydrothieno[2,3-c]pyridine-3-carboxamide] | 25 to 50 | < 25 | < 25 | < 25
8 | C[C@@H]1c2scc(C(=O)Nc3cccc(C(F)(F)F)c3)c2CCN1C(=O)c1cnc2ccccn12 [Example 100, (R)-6-(imidazo[1,2-a]pyridine-3-carbonyl)-7-methyl-N-(3-(trifluoromethyl)phenyl)-4,5,6,7-tetrahydrothieno[2,3-c]pyridine-3-carboxamide] | < 25 | < 25 | < 25 | < 25
9 | CC1c2scc(C(=O)Nc3cccc(C(F)(F)F)c3)c2CCN1Cc1cnc2[nH]ccc2c1 (single isomer, unassigned) [Example 106, 6-((1H-pyrrolo[2,3-b]pyridin-5-yl)methyl)-7-methyl-N-(3-(trifluoromethyl)phenyl)-4,5,6,7-tetrahydrothieno[2,3-c]pyridine-3-carboxamide] | < 25 | < 25 | < 25 | 25 to 50

Further lines, results first:

Row | Ki [1] [nM] | IC50 [2] [nM] | Ki [3] [nM] | IC50 [4] [nM] | Structure (SMILES)
10 | < 25 | < 25 | < 25 | < 25 | O=C(Nc1cccc(C(F)(F)F)c1)c1csc2c1CCN(C(=O)c1cnn3ccncc13)C2 [Example 93, 6-(pyrazolo[1,5-a]pyrazine-3-carbonyl)-N-(3-(trifluoromethyl)phenyl)-4,5,6,7-tetrahydrothieno[2,3-c]pyridine-3-carboxamide]
11 | < 25 | < 25 | < 25 | < 25 | O=C(Nc1cncc(C(F)(F)F)c1)c1csc2c1CCN(Cc1cnc3[nH]ncc3c1)C2 [Example 151, 6-(1H-pyrazolo[3,4-b]pyridin-5-ylmethyl)-N-[5-(trifluoromethyl)-3-pyridyl]-5,7-dihydro-4H-thieno[2,3-c]pyridine-3-carboxamide]
12 | < 25 | < 25 | < 25 | < 25 | Cc1n[nH]c2ncc(CN3CCc4c(C(=O)Nc5cncc(C(F)(F)F)c5)csc4C3)cc12 [Example 150, 6-((3-methyl-1H-pyrazolo[3,4-b]pyridin-5-yl)methyl)-N-(5-(trifluoromethyl)pyridin-3-yl)-4,5,6,7-tetrahydrothieno[2,3-c]pyridine-3-carboxamide]
13 | < 25 | < 25 | < 25 | < 25 | COc1ccc(NC(=O)c2csc3c2CCN(C(=O)c2cnc4ccccn24)C3)cc1C(F)(F)F [Example 4, 6-(imidazo[1,2-a]pyridine-3-carbonyl)-N-(4-methoxy-3-(trifluoromethyl)phenyl)-4,5,6,7-tetrahydrothieno[2,3-c]pyridine-3-carboxamide]
14 | < 25 | < 25 | < 25 | < 25 | CN1CCN(c2ccc3ncc(C(=O)N4CCc5c(C(=O)Nc6cccc(C(F)(F)F)c6)csc5C4)n3c2)CC1 [Example 136, 6-(6-(4-methylpiperazin-1-yl)imidazo[1,2-a]pyridine-3-carbonyl)-N-(3-(trifluoromethyl)phenyl)-4,5,6,7-tetrahydrothieno[2,3-c]pyridine-3-carboxamide]
15 | < 25 | < 25 | < 25 | < 25 | O=C(Nc1cccc(C(F)(F)F)c1)c1csc2c1CCN(Cc1cnc3cnccn13)C2 [Example 84, 6-(imidazo[1,2-a]pyrazin-3-ylmethyl)-N-(3-(trifluoromethyl)phenyl)-4,5,6,7-tetrahydrothieno[2,3-c]pyridine-3-carboxamide]
16 | < 25 | < 25 | < 25 | 25 to 50 | O=C(Nc1ccc(CN2CCOCC2)c(C(F)(F)F)c1)c1csc2c1CCN(C(=O)c1cnc3ccccn13)C2 [Example 23, 6-(imidazo[1,2-a]pyridine-3-carbonyl)-N-(4-(morpholinomethyl)-3-(trifluoromethyl)phenyl)-4,5,6,7-tetrahydrothieno[2,3-c]pyridine-3-carboxamide]
